According to publication PMC7271629 (ACS chemical biology, 2020):

Experiments:
[1] = system: c-Myc expression in K562 chronic myelogenous leukemia cells; experiment: c-Myc expression in K562 cells; type: cell-based, human
[2] = system: BD1 and BD2 within a BET protein; settings: cited from earlier work

SMILES	effect on c-Myc expression [1]	affinity of bivalent engagement of BD1 and BD2 [2]
Cc1sc2c(c1C)C(c1ccc(Cl)cc1)=N[C@@H](CC(=O)OC(C)(C)C)c1nnc(C)n1-2 [JQ1]	attenuated c-Myc expression	
Cc1sc2c(c1C)C(c1ccc(Cl)cc1)=N[C@@H](CC(=O)NCCOCCOCCOCCOCCOCCOCCOCCNC(=O)C[C@@H]1N=C(c3ccc(Cl)cc3)c3c(sc(C)c3C)-n3c(C)nnc31)c1nnc(C)n1-2 [MT1]		subnanomolar
